Assay results published in PubChem BioAssay AID1259407 (Chemical Carcinogenesis Research Information System (CCRIS), 2018).
The source made the active and inactive calls. The rule behind the calls is not given here.

Tested on: CCRIS mutagenicity, Ames/micronucleus/aberration tests
Assay: CCRIS mutagenicity studies
[1] = Test System: AMES SALMONELLA TYPHIMURIUM, Strain/Indicator: TA98, Metabolic Activation: NONE, Method: STANDARD PLATE
[2] = Test System: AMES SALMONELLA TYPHIMURIUM, Strain/Indicator: TA100, Metabolic Activation: NONE, Method: PREINCUBATION
[3] = Test System: AMES SALMONELLA TYPHIMURIUM, Strain/Indicator: TA100, Metabolic Activation: NONE, Method: STANDARD PLATE
[4] = Test System: AMES SALMONELLA TYPHIMURIUM, Strain/Indicator: TA1535, Metabolic Activation: NONE, Method: PREINCUBATION

CCCCCCCCCCCCN=C(N)N
mutagenic call (End Point: In vitro chromosomal aberrations, Test System: Cultured human (male) lymphocytes, Metabolic Activation: None): inactive; negative
mutagenic call (End Point: In vitro chromosomal aberrations, Test System: Cultured human (male) lymphocytes, Metabolic Activation: S-9): inactive; negative
mutagenic call (End Point: In vivo micronucleus, Test System: Blood erythrocytes, Species: Mouse, Strain/Sex: ICR (male and female), 5-20/sex/dose, Route: Oral): inactive; negative
mutagenic call (End Point: In vivo micrunucleus, Test System: Bone marrow polychromatic erythrocytes, Species: Mouse, Strain/Sex: Males and females, Route: Oral): inactive; negative
mutagenic call (Test System: Ames Salmonella typhimurium, Strain/Indicator: TA98, Metabolic Activation: None, Method: Plate incorporation): inactive; negative
mutagenic call (Test System: Ames Salmonella typhimurium, Strain/Indicator: TA98, Metabolic Activation: Rat, Liver, S-9, Aroclor, Method: Plate incorporation): inactive; negative
mutagenic call (Test System: Ames Salmonella typhimurium, Strain/Indicator: TA100, Metabolic Activation: None, Method: Plate incorporation): inactive; negative
mutagenic call (Test System: Ames Salmonella typhimurium, Strain/Indicator: TA100, Metabolic Activation: Rat, Liver, S-9, Aroclor, Method: Plate incorporation): inactive; negative
mutagenic call (Test System: Ames Salmonella typhimurium, Strain/Indicator: TA1535, Metabolic Activation: None, Method: Plate incorporation): inactive; negative
mutagenic call (Test System: Ames Salmonella typhimurium, Strain/Indicator: TA1535, Metabolic Activation: Rat, Liver, S-9, Aroclor, Method: Plate incorporation): inactive; negative
mutagenic call (Test System: Ames Salmonella typhimurium, Strain/Indicator: TA1537, Metabolic Activation: None, Method: Plate incorporation): inactive; negative
mutagenic call (Test System: Ames Salmonella typhimurium, Strain/Indicator: TA1537, Metabolic Activation: Rat, Liver, S-9, Aroclor, Method: Plate incorporation): inactive; negative
mutagenic call (Test System: Chinese hamster ovary (CHO) cells, Strain/Indicator: CHO/6-Thioguanine, Metabolic Activation: None): inactive; negative
mutagenic call (Test System: Chinese hamster ovary (CHO) cells, Strain/Indicator: CHO/6-Thioguanine, Metabolic Activation: S-9): inactive; negative
mutagenic call (Test System: E. coli, Strain/Indicator: WP2uvrA, Metabolic Activation: None, Method: Plate incorporation): inactive; negative
mutagenic call (Test System: E. coli, Strain/Indicator: WP2uvrA, Metabolic Activation: Rat, Liver, S-9, Method: Plate incorporation): inactive; negative

COc1ccc(O)cc1
mutagenic call (Test System: AMES SALMONELLA TYPHIMURIUM, Strain/Indicator: TA97, Metabolic Activation: NONE, Method: STANDARD PLATE): inactive; negative
mutagenic call (Test System: AMES SALMONELLA TYPHIMURIUM, Strain/Indicator: TA97, Metabolic Activation: S-9, Method: STANDARD PLATE): inactive; negative
mutagenic call (Test System: AMES SALMONELLA TYPHIMURIUM, Strain/Indicator: TA98, Metabolic Activation: HAMSTER, LIVER, S-9, AROCLOR 1254, Method: PREINCUBATION): inactive; negative
mutagenic call (Test System: AMES SALMONELLA TYPHIMURIUM, Strain/Indicator: TA98, Metabolic Activation: NONE, Method: PREINCUBATION): inactive; negative
mutagenic call [1]: inactive; negative
mutagenic call (Test System: AMES SALMONELLA TYPHIMURIUM, Strain/Indicator: TA98, Metabolic Activation: RAT, LIVER, S-9, AROCLOR 1254, Method: PREINCUBATION): inactive; negative
mutagenic call (Test System: AMES SALMONELLA TYPHIMURIUM, Strain/Indicator: TA98, Metabolic Activation: S-9, Method: STANDARD PLATE): inactive; negative
mutagenic call (Test System: AMES SALMONELLA TYPHIMURIUM, Strain/Indicator: TA100, Metabolic Activation: HAMSTER, LIVER, S-9, AROCLOR 1254, Method: PREINCUBATION): inactive; negative
mutagenic call [2]: inactive; negative
mutagenic call [3]: inactive; negative
mutagenic call (Test System: AMES SALMONELLA TYPHIMURIUM, Strain/Indicator: TA100, Metabolic Activation: RAT, LIVER, S-9, AROCLOR 1254, Method: PREINCUBATION): inactive; negative
mutagenic call (Test System: AMES SALMONELLA TYPHIMURIUM, Strain/Indicator: TA100, Metabolic Activation: S-9, Method: STANDARD PLATE): inactive; negative
mutagenic call (Test System: AMES SALMONELLA TYPHIMURIUM, Strain/Indicator: TA102, Metabolic Activation: NONE, Method: STANDARD PLATE): inactive; negative
mutagenic call (Test System: AMES SALMONELLA TYPHIMURIUM, Strain/Indicator: TA102, Metabolic Activation: S-9, Method: STANDARD PLATE): inactive; negative
mutagenic call (Test System: AMES SALMONELLA TYPHIMURIUM, Strain/Indicator: TA1535, Metabolic Activation: HAMSTER, LIVER, S-9, AROCLOR 1254, Method: PREINCUBATION): inactive; negative
mutagenic call [4]: inactive; negative
mutagenic call (Test System: AMES SALMONELLA TYPHIMURIUM, Strain/Indicator: TA1535, Metabolic Activation: RAT, LIVER, S-9, AROCLOR 1254, Method: PREINCUBATION): inactive; negative
mutagenic call (Test System: AMES SALMONELLA TYPHIMURIUM, Strain/Indicator: TA1537, Metabolic Activation: HAMSTER, LIVER, S-9, AROCLOR 1254, Method: PREINCUBATION): inactive; negative
mutagenic call (Test System: AMES SALMONELLA TYPHIMURIUM, Strain/Indicator: TA1537, Metabolic Activation: NONE, Method: PREINCUBATION): inactive; negative
mutagenic call (Test System: AMES SALMONELLA TYPHIMURIUM, Strain/Indicator: TA1537, Metabolic Activation: RAT, LIVER, S-9, AROCLOR 1254, Method: PREINCUBATION): inactive; negative
mutagenic call (Test System: E.COLI, Strain/Indicator: WP2 (PKM101), Metabolic Activation: NONE, Method: STANDARD PLATE): inactive; negative
mutagenic call (Test System: E.COLI, Strain/Indicator: WP2 (PKM101), Metabolic Activation: S-9, Method: STANDARD PLATE): inactive; negative

Brc1cc(Br)c(-c2cc(Br)c(Br)cc2Br)cc1Br
mutagenic call (Test System: CHINESE HAMSTER V-79, Strain/Indicator: V-79 (HGPRT)/6-THIOGUANINE, Metabolic Activation: NONE): inactive; negative

C[C@@H](C(=O)OC(C)(C)C)N(N=[N+]=[N-])C(=O)OC(C)(C)C
mutagenic call [3]: active; positive

O=[N+]([O-])c1cc2ccccc2c2c([N+](=O)[O-])cccc12
mutagenic call (Test System: AMES SALMONELLA TYPHIMURIUM, Strain/Indicator: TA98(1,8-DNP6), Metabolic Activation: NONE, Method: STANDARD PLATE): active; positive
mutagenic call (Test System: AMES SALMONELLA TYPHIMURIUM, Strain/Indicator: TA98(NR), Metabolic Activation: NONE, Method: STANDARD PLATE): active; positive
mutagenic call [1]: active; positive
mutagenic call [3]: active; positive
mutagenic call (Test System: AMES SALMONELLA TYPHIMURIUM, Strain/Indicator: YG1021, Metabolic Activation: NONE, Method: STANDARD PLATE): active; positive
mutagenic call (Test System: AMES SALMONELLA TYPHIMURIUM, Strain/Indicator: YG1024, Metabolic Activation: NONE, Method: STANDARD PLATE): active; positive
mutagenic call (Test System: AMES SALMONELLA TYPHIMURIUM, Strain/Indicator: YG1026, Metabolic Activation: NONE, Method: STANDARD PLATE): active; positive
mutagenic call (Test System: AMES SALMONELLA TYPHIMURIUM, Strain/Indicator: YG1029, Metabolic Activation: NONE, Method: STANDARD PLATE): active; positive

CC(C)OCC1CO1 (stereo unspecified)
mutagenic call (Test System: AMES SALMONELLA TYPHIMURIUM, Strain/Indicator: TA100, Metabolic Activation: HAMSTER, LIVER, S-9, AROCLOR 1254 (10%), Method: PREINCUBATION): active; positive
mutagenic call [2]: active; positive
mutagenic call (Test System: AMES SALMONELLA TYPHIMURIUM, Strain/Indicator: TA100, Metabolic Activation: RAT, LIVER, S-9, AROCLOR 1254 (10%), Method: PREINCUBATION): active; positive
mutagenic call (Test System: AMES SALMONELLA TYPHIMURIUM, Strain/Indicator: TA1535, Metabolic Activation: HAMSTER, LIVER, S-9, AROCLOR 1254 (10%), Method: PREINCUBATION): active; positive
mutagenic call [4]: active; positive
mutagenic call (Test System: AMES SALMONELLA TYPHIMURIUM, Strain/Indicator: TA1535, Metabolic Activation: RAT, LIVER, S-9, AROCLOR 1254 (10%), Method: PREINCUBATION): active; positive

CN(C)N=Nc1ccccc1
mutagenic call (Test System: AMES SALMONELLA TYPHIMURIUM, Strain/Indicator: G46, Metabolic Activation: NONE, Method: STANDARD PLATE): active; positive
mutagenic call (Test System: AMES SALMONELLA TYPHIMURIUM, Strain/Indicator: G46, Metabolic Activation: RAT, LIVER, S-9, PHENOBARBITAL, Method: STANDARD PLATE): active; positive
